Reference: PubChem BioAssay AID2060355 (Molecular Pharmacology Branch, DTP, NCI, 2025)

Test system: 485368-065-R4-J2-PDC spheroids with HUVEC/MSC, viability
Experiment: Anticancer human tumor 485368-065-R4-J2-PDC patient-derived pancreatic carcinoma cell line growth inhibition [TAK]
Settings: for IC50: curve of first compound; for viability, T/C: stronger effect = lower value
Excerpt: Combinatorial screen of targeted agents with TAK-243 and ipatasertib in multi-cell type tumor spheroids
A high-throughput screen of multi-cell type tumor spheroids was designed to identify active combinations of targeted small molecules and TAK-243 or ipatasertib. Complex spheroids include a stromal component modeled by human endothelial cells (HUVEC) and fibroblasts modeled by human mesenchymal stem cells (MSCs). The concentration ranges selected for each drug and investigational agent were based upon clinically achievable concentrations if the clinical Cmax of the agent was known.
Compounds. The drugs and investigational agents: TAK-243 (785004), ipatasertib (767898), everolimus (733504), selumetinib (741078), bortezomib (756655), trametinib (758246), ixazomib (758254), vemurafenib (761431), dabrafenib (764134), sapanisertib (764658), alpelisib (765974), and copanlisib (816437), were obtained from the National Cancer Institute (NCI) Developmental Therapeutics Program Chemical Repository. The FDA-approved anticancer drug set is available from the NCI Developmental Therapeutics Program. […] The stock solutions were prepared in dimethyl sulfoxide (DMSO, Sigma-Aldrich, St. Louis, MO, cat. D2650) at 800-fold the tested concentration and stored at -70 degrees C prior to their use. All drugs and investigational agents were tested over a range starting from a high concentration at or near the clinical Cmax and decreasing in half-log increments. If the clinical Cmax for an agent had not been determined, the highest concentration tested was 10 microM.
NCI60 Cell Culture. NCI60 cell lines were obtained from the NCI Developmental Therapeutics Program Tumor Repository. For each lot of cells, the Repository performed Applied Biosystems AmpFLSTR Identifiler testing with PCR amplification to confirm consistency with the published Identifier STR profile for each cell line. Cells were kept in continuous culture for no more than 20 passages. The optimal seeding densities for each of the cell lines at each time point assessed were determined prior to performing the concentration response studies. Briefly, the NCI60 human tumor lines were grown as monolayers in RPMI 1640 medium supplemented with 10% FBS and 2 mmol/L L-glutamine.
An additional 2 lines were from the NCI60 cell line panel including melanomas, MALME-3M and SK-MEL-2. Pooled donor human umbilical vein endothelial cells (HUVEC, Lonza, cat. CC-2519) and human mesenchymal stem cells (hMSC, Lonza, cat. PT-2501) were purchased from Lonza (Walkersville, MD).
PDMR cell lines were grown in complete medium (DC medium): Dulbecco's modified Eagle's medium (DMEM)/F12 supplemented with 5% fetal bovine serum (FBS), 2 mM L-glutamine, 100 U/mL penicillin and 100 µg/ml streptomycin, 0.4 µg/ml hydrocortisone, 10 ng/ml epidermal growth factor (EGF) recombinant human protein, 24 µg/mL adenine, and 0.1 mg/mL primocin. During culture from frozen stock vials, PDMR cells were cultured in the same medium containing 10 µM Y-27632 (see Table 3). The PDCs were cultured in complete DMEM/F12 media without 10 microM Y-27632 dihydrochloride for at least two passages prior to the screen. The pooled donor HUVEC and hMSC were cultured in endothelial cell growth medium 2 (PromoCell, Heidelberg, Germany, cat. C-22011) and mesenchymal stem cell growth medium 2 (PromoCell, cat. C-28009), respectively. For all experiments, HUVEC and hMSC were used at passages </=5.
For the pre-screen, cell seeding densities were determined from a titration spanning the range from 5,000 to 313 cells per well. The mct-spheroids including 60% malignant cells, 25% HUVEC and 15% MSC dispensed as a mixture into U-bottom Ultra-Low Attachment 384-well plates (Corning, NY)
High-throughput Drug Combination Screening.
Prior to their inoculation into 384-well plates, malignant cells, HUVEC, and hMSC were removed from T flasks using TrypLE express (Thermo Fisher Scientific, cat. 12605036) and harvested by centrifugation for 5 min at 233 x g. […]

[1] = second compound 0.3 µM, first compound 0.00316 µM
[2] = second compound 0.3 µM, first compound 0.01 µM
[3] = second compound 0.3 µM, first compound 0.0316 µM
[4] = second compound 0.3 µM, first compound 0.1 µM
[5] = second compound 0.949 µM, first compound 0.00316 µM
[6] = second compound 0.949 µM, first compound 0.01 µM
[7] = second compound 0.949 µM, first compound 0.0316 µM
[8] = second compound 0.949 µM, first compound 0.1 µM
[9] = second compound 3 µM, first compound 0.00316 µM
[10] = second compound 3 µM, first compound 0.01 µM
[11] = second compound 3 µM, first compound 0.0316 µM
[12] = second compound 3 µM, first compound 0.1 µM
[13] = second compound 9.49 µM, first compound 0.00316 µM
[14] = second compound 9.49 µM, first compound 0.01 µM
[15] = second compound 9.49 µM, first compound 0.0316 µM
[16] = second compound 9.49 µM, first compound 0.1 µM
[17] = second compound 30 µM, first compound 0.00316 µM
[18] = second compound 30 µM, first compound 0.01 µM
[19] = second compound 30 µM, first compound 0.0316 µM
[20] = second compound 30 µM, first compound 0.1 µM
[21] = second compound 0.3 µM, first compound 0.000316 µM
[22] = second compound 0.3 µM, first compound 0.001 µM
[23] = second compound 0.949 µM, first compound 0.000316 µM
[24] = second compound 0.949 µM, first compound 0.001 µM
[25] = second compound 3 µM, first compound 0.000316 µM
[26] = second compound 3 µM, first compound 0.001 µM
[27] = second compound 9.49 µM, first compound 0.000316 µM
[28] = second compound 9.49 µM, first compound 0.001 µM
[29] = second compound 30 µM, first compound 0.000316 µM
[30] = second compound 30 µM, first compound 0.001 µM
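Note: spheroids exposed to compounds for seven days before readout.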
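Throughout, for viability, T/C: 100% = DMSO vehicle control wells.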

For `COc1c(OCCCN2CCOCC2)ccc2c3n(c(=NC(=O)c4cnc(N)nc4)nc12)CCN3` + CC(C)NCC(C(=O)N1CCN(c2ncnc3c2C(C)CC3O)CC1)c1ccc(Cl)cc1, the IC50 (second compound 0.3 µM) was 133 nM, the IC50 (second compound 0.949 µM) was 161 nM and the IC50 (second compound 3 µM) was 75.6 nM. It also gave an IC50 (second compound 9.49 µM) of 45.8 nM, an IC50 (second compound 30 µM) of 15.1 nM and a viability, T/C [1] of 91.7%. For the same compound, the viability, T/C [2] was 76.2%, the viability, T/C [3] was 94.5% and the viability, T/C [4] was 55.6%. The viability, T/C (second compound 0.3 µM, first compound 0.316 µM) was 35.1%, the viability, T/C (second compound 0.3 µM, first compound 1 µM) was 31.2% and the viability, T/C [5] was 96.3%. The viability, T/C [6] was 100%, the viability, T/C [7] was 84.6% and the viability, T/C [8] was 61.1%. It also gave a viability, T/C (second compound 0.949 µM, first compound 0.316 µM) of 34.3%, a viability, T/C (second compound 0.949 µM, first compound 1 µM) of 33.2% and a viability, T/C [9] of 95.9%. For the same compound, the viability, T/C [10] was 86.8%, the viability, T/C [11] was 66.5% and the viability, T/C [12] was 45.6%. The viability, T/C (second compound 3 µM, first compound 0.316 µM) was 31.5%, the viability, T/C (second compound 3 µM, first compound 1 µM) was 31.2% and the viability, T/C [13] was 81%. For the same compound, the viability, T/C [14] was 72.8%, the viability, T/C [15] was 56.6% and the viability, T/C [16] was 37.2%. It also gave a viability, T/C (second compound 9.49 µM, first compound 0.316 µM) of 28.4%, a viability, T/C (second compound 9.49 µM, first compound 1 µM) of 28% and a viability, T/C [17] of 60.4%. For the same compound, the viability, T/C [18] was 56.5%, the viability, T/C [19] was 38.8% and the viability, T/C [20] was 29.8%. For the same compound, the viability, T/C (second compound 30 µM, first compound 0.316 µM) was 25.3% and the viability, T/C (second compound 30 µM, first compound 1 µM) was 26.3%.
In the case of `COC1CC2CCC(C)C(O)(O2)C(=O)C(=O)N2CCCCC2C(=O)OC(C(C)CC2CCC(OCCO)C(OC)C2)CC(=O)C(C)C=C(C)C(O)C(OC)C(=O)C(C)CC(C)C=CC=CC=C1C` (stereo not given) + CC(C)NCC(C(=O)N1CCN(c2ncnc3c2C(C)CC3O)CC1)c1ccc(Cl)cc1, the IC50 (second compound 0.3 µM) is reported as > 100 nM, the IC50 (second compound 0.949 µM) is reported as > 100 nM and the IC50 (second compound 3 µM) is reported as > 100 nM. For the same compound, the IC50 (second compound 9.49 µM) was > 100 nM, the IC50 (second compound 30 µM) was > 100 nM and the viability, T/C [21] was 93.1%. For the same compound, the viability, T/C [22] was 102%, the viability, T/C [1] was 104% and the viability, T/C [2] was 107%. For the same compound, the viability, T/C [3] was 101%, the viability, T/C [4] was 102% and the viability, T/C [23] was 103%. The viability, T/C [24] was 106%, the viability, T/C [5] was 100% and the viability, T/C [6] was 92.1%. For the same compound, the viability, T/C [7] was 87.3%, the viability, T/C [8] was 83.5% and the viability, T/C [25] was 100%. It also gave a viability, T/C [26] of 97.1%, a viability, T/C [9] of 82.9% and a viability, T/C [10] of 76.5%. It also gave a viability, T/C [11] of 71.1%, a viability, T/C [12] of 74.4% and a viability, T/C [27] of 83.8%. It also gave a viability, T/C [28] of 83.1%, a viability, T/C [13] of 69% and a viability, T/C [14] of 71.4%. For the same compound, the viability, T/C [15] was 64.3%, the viability, T/C [16] was 60.3% and the viability, T/C [29] was 73.9%. For the same compound, the viability, T/C [30] was 69%, the viability, T/C [17] was 63.9% and the viability, T/C [18] was 58.7%. For the same compound, the viability, T/C [19] was 60.1% and the viability, T/C [20] was 54.5%.
With `CC(C)n1nc(-c2ccc3oc(N)nc3c2)c2c(N)ncnc21` + CC(C)NCC(C(=O)N1CCN(c2ncnc3c2C(C)CC3O)CC1)c1ccc(Cl)cc1 the IC50 (second compound 0.3 µM) was 58.5 nM, the IC50 (second compound 0.949 µM) was 29.3 nM and the IC50 (second compound 3 µM) was 20.8 nM. The IC50 (second compound 9.49 µM) was 10.1 nM, the IC50 (second compound 30 µM) was 6.33 nM and the viability, T/C [21] was 95.7%. The viability, T/C [22] was 88%, the viability, T/C [1] was 90.6% and the viability, T/C [2] was 89.7%. It also gave a viability, T/C [3] of 56.5%, a viability, T/C [4] of 44.4% and a viability, T/C [23] of 98.6%. The viability, T/C [24] was 99.3%, the viability, T/C [5] was 91.4% and the viability, T/C [6] was 66.7%. It also gave a viability, T/C [7] of 51.2%, a viability, T/C [8] of 40.3% and a viability, T/C [25] of 97.8%. It also gave a viability, T/C [26] of 94.4%, a viability, T/C [9] of 81.4% and a viability, T/C [10] of 62.5%. For the same compound, the viability, T/C [11] was 42.7%, the viability, T/C [12] was 34.5% and the viability, T/C [27] was 91.9%. It also gave a viability, T/C [28] of 86.1%, a viability, T/C [13] of 75.2% and a viability, T/C [14] of 49.4%. The viability, T/C [15] was 36.8%, the viability, T/C [16] was 32.5% and the viability, T/C [29] was 73.1%. For the same compound, the viability, T/C [30] was 69.3%, the viability, T/C [17] was 57.6% and the viability, T/C [18] was 45.3%. The viability, T/C [19] was 31.4% and the viability, T/C [20] was 25.7%.
